This is an account of results in US9771372B2, “Compounds useful as S100-inhibitors” (Active Biotech AB, priority 2014, dated 2017).

Molecules are shown by their SMILES.

For this assay, the target named is T1, interaction between biotinylated human S100A9 and human RAGE-Fc (Homo sapiens, UniProt P06702).
T1 construct: made in house; host or cells: E. coli BL21(DE3)/pET1120 (pLR757)
T1 sequence (P06702 1-114): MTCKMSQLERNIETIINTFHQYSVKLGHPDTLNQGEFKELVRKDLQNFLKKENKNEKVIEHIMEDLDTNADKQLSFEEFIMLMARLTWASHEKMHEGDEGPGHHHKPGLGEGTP
Nature of the assay: AlphaScreen inhibition assay, Biot-hS100A9:hRAGE-Fc (S100A9-RAGE inhibition assay). The format is binding. The conditions noted are these: biot-hS100A9 and rhRAGE-Fc, Ca2+ and Zn2+ in buffer. The text has this: FIG. 1 is a schematic representation of an assay of the inhibition of the interaction between biotinylated human S100A9 and human RAGE-Fc using a small molecule S100A9 binder.
Inhibition Assay, Biot-hS100A9:hRAGE-Fc
The AlphaScreen (Amplified Luminescent Proximity Homogeneous Assay) contains two types of beads, Alpha Donor beads and Acceptor beads (PerkinElmer). Upon laser excitation at 680 nm a photosensitizer in the Donor bead converts ambient oxygen to a more excited singlet state. The singlet oxygen molecule diffuses (maximum 200 nm) to react with a thioxene derivative in the Acceptor bead and generates a chemiluminescence reaction. Fluorophores in the Acceptor bead subsequently emit light at 520-620 nm which can be detected in the EnVision® Multilabel plate Reader (PerkinElmer). The beads are light sensitive and all work with the beads is performed under subdued light conditions or using green filters on light sources (Roscolux Chroma Green #389, Rosco).
In the AlphaScreen Inhibition Assay described here, protein A (Staphylococcus aureus) conjugated Acceptor beads are used together with streptavidin coated Donor beads (Perkin Elmer 6760617M). The Acceptor beads are pre-incubated with Fc-tagged recombinant human RAGE (rhRAGE-Fc) allowing binding of the rhRAGE-Fc to protein A on the beads. Biotinylated human S100A9 (biot-hS100A9) is pre-incubated with the low molecular test compounds. The pre-mixes are then added to the wells of a micro-plate and incubated allowing interaction between biot-hS100A9 and rhRAGE-Fc. Subsequent addition of streptavidin coated Donor beads causes binding of the streptavidin to the biotinylated hS100A9. After an additional incubation the signal is measured.
Without inhibitory compounds, the interaction of biot-hS100A9 to rhRAGE-Fc will bring the Acceptor and Donor beads in close proximity thus generating a high signal. With an inhibitor present the complex will not form resulting in a decreased signal.
The AlphaScreen assay method is used for screening of the inhibitory effect of different compound samples at fixed concentrations or for IC50 determination by varying the compound concentrations. Samples of test compounds and references are prepared from solutions in DMSO. Relevant reference inhibitors and DMSO are used as controls for defined inhibition and non-inhibition, respectively in the assay. The percent inhibition in assay for test compounds and references are calculated by comparing their obtained assay signals with the signal values for the control with only DMSO (no compound).
Assay concentration of biotinylated hS100A9 and rhRAGE-Fc are batch dependent, and are determined and defined by separate cross-titration experiments using this AlphaScreen inhibition method to verify the optimal setup regarding signal strength and achievement of a defined inhibition with relevant reference compounds. The Final assay concentrations of Acceptor and Donor beads are 20 μg/mL.
Assay buffer is prepared by adding CaCl2 and ZnCl2 to HBS-P and is used freshly prepared in the experiment.
Biotin-hS100A9 solution for the experiment is prepared by dilution of appropriate amount of stock solution biot-hS100A9 in assay buffer (with CaCl2 and ZnCl2) and incubation in room temperature for 30 minutes.
rhRAGE-Fc solution for the experiment is prepared by dilution appropriate amount of rhRAGE-Fc stock in assay buffer.
Protein A Acceptor beads are diluted in assay buffer and are added to an equal volume of the prepared diluted rhRAGE-Fc solution. The beads are light sensitive. The vial is covered with aluminum foil and incubated at room temperature in the dark until biot-hS100A9+compound incubation is finished (see below).
Streptavidin-coated Donor beads are diluted in assay buffer. The beads are very light sensitive. The vial is covered with aluminum foil and incubated at room temperature in the dark until use (see below).
Samples of test compounds, appropriate references and DMSO control are diluted in assay buffer. […]

For `O=C(CCC1CCCC1)NC1(C(F)(F)F)C(=O)Nc2nc3cc(Cl)c(Cl)cc3n21` (single isomer, unassigned) [Example 219b, 3-cyclopentyl-N-[10,11-dichloro-4-oxo-3-(trifluoromethyl)-2,5,7-triazatricyclo[6.4.0.0^2,6]dodeca-1(12),6,8,10-tetraen-3-yl]propanamide], the IC50 amounted to 230 nM.
The same measure for `CO[C@H](C(=O)NC1(C(F)(F)F)C(=O)Nc2nc3cc(C)c(C)cc3n21)c1ccccc1` (single isomer, unassigned) [Example 147b]: 3440 nM; for `Cc1cc2c(nc3n2C(NC(=O)c2ccccc2)(C(F)(F)F)C(=O)N3)c(Br)c1C` (stereo not shown) [Example 77, N-[9-bromo-10,11-dimethyl-4-oxo-3-(trifluoromethyl)-2,5,7-triazatricyclo[6.4.0.0^2,6]dodeca-1(8),6,9,11-tetraen-3-yl]benzamide]: 4300 nM; for `Cc1cc2nc3n(c2cc1C)C(NC(=O)CCC1CCCC1)(C(F)(F)F)C(=O)N3` (stereo not shown) [Example 27, 3-cyclopentyl-N-[10,11-dimethyl-4-oxo-3-(trifluoromethyl)-2,5,7-triazatricyclo[6.4.0.0^2,6]-dodeca-1(12),6,8,10-tetraen-3-yl]propanamide]: 400 nM.
The same measure for `COC[C@H](C)Nc1cccc(C(=O)NC2(C(F)(F)F)C(=O)Nc3nc4c(C#N)c(Cl)ccc4n32)n1` (mixture of isomers) [Example 140, N-[10-chloro-9-cyano-4-oxo-3-(trifluoromethyl)-2,5,7-triaza-tricyclo[6.4.0.0^2,6]dodeca-1(8),6,9,11-tetraen-3-yl]-6-{[(2S)-1-methoxypropan-2-yl]amino}-pyridine-2-carboxamide]: 1450 nM; for `Cc1cc2nc3n(c2cc1C)C(NC(=O)[C@@H](C)c1ccccc1)(C(F)(F)F)C(=O)N3` (single isomer, unassigned) [Example 144]: 6410 nM; for `O=C(NC1(C(F)(F)F)C(=O)Nc2nc3cc(Cl)c(Cl)cc3n21)[C@@H]1CCCN1` (mixture of isomers) [Example 41, (2S)—N-[10,11-dichloro-4-oxo-3-(trifluoromethyl)-2,5,7-triaza-tricyclo[6.4.0.0^2,6]dodeca-1(12),6,8,10-tetraen-3-yl]pyrrolidine-2-carboxamide]: 2000 nM.
The same measure for `O=C(CCC1CCCC1)NC1(C(F)(F)F)C(=O)Nc2nc3c(OC(F)(F)F)cccc3n21` (stereo not shown) [Example 164, 3-cyclopentyl-N-[4-oxo-9-(trifluoromethoxy)-3-(trifluoromethyl)-2,5,7-triazatricyclo[6.4.0.0^2,6]dodeca-1(12),6,8,10-tetraen-3-yl]propanamide]: 1470 nM; for `COc1ccc(-c2cccc3c2nc2n3C(NC(=O)CCC3CCCC3)(C(F)(F)F)C(=O)N2)cc1` (single isomer, unassigned) [Example 230b, 3-cyclopentyl-N-[9-(4-methoxyphenyl)-4-oxo-3-(trifluoromethyl)-2,5,7-triazatricyclo[6.4.0.0^2,6]dodeca-1(12),6,8,10-tetraen-3-yl]propanamide]: 2880 nM; for `CC(=O)c1cccc2c1nc1n2C(NC(=O)CCC2CCCC2)(C(F)(F)F)C(=O)N1` (single isomer, unassigned) [Example 224b, N-[9-acetyl-4-oxo-3-(trifluoromethyl)-2,5,7-triazatricyclo[6.4.0.0^2,6]dodeca-1(12),6,8,10-tetraen-3-yl]-3-cyclopentylpropanamide]: 10100 nM.
On to `O=C(NC1(C(F)(F)F)C(=O)Nc2nc3cc(Cl)c(Cl)cc3n21)C1CCCC1` (stereo not shown) [Example 54, N-[10,11-dichloro-4-oxo-3-(trifluoromethyl)-2,5,7-triazatricyclo[6.4.0.0^2,6]dodeca-1(12),6,8,10-tetraen-3-yl]cyclopentanecarboxamide], for which the half-maximal inhibitory concentration (IC50) amounted to 1600 nM.
Then `COc1cc2nc3n(c2cc1OC)C(NC(=O)CCC1CCCC1)(C(F)(F)F)C(=O)N3` (stereo not shown) [Example 76, 3-cyclopentyl-N-[10,11-dimethoxy-4-oxo-3-(trifluoromethyl)-2,5,7-triazatricyclo-[6.4.0.0^2,6]dodeca-1(12),6,8,10-tetraen-3-yl]propanamide], with 11400 nM; and `O=C(CCC1CCCCN1)NC1(C(F)(F)F)C(=O)Nc2nc3cc(Cl)c(Cl)cc3n21` (stereo not shown) [Example 69, N-[10,11-dichloro-4-oxo-3-(trifluoromethyl)-2,5,7-triazatricyclo[6.4.0.0^2,6]dodeca-1(12),6,8,10-tetraen-3-yl]-3-(piperidin-2-yl)propanamide], with 4900 nM; and `Cc1ccc(-c2cccc3c2nc2n3C(NC(=O)CCC3CCCC3)(C(F)(F)F)C(=O)N2)cc1` (stereo not shown) [Example 202, 3-cyclopentyl-N-[9-(4-methylphenyl)-4-oxo-3-(trifluoromethyl)-2,5,7-triazatricyclo[6.4.0.0^2,6]dodeca-1(12),6,8,10-tetraen-3-yl]propanamide], with 700 nM.
The same measure for `O=C(NC1(C(F)(F)F)C(=O)Nc2nc3cc(Cl)c(Cl)cc3n21)c1cc(Cl)cc(Cl)c1` (stereo not shown) [Example 57, 3,5-dichloro-N-[10,11-dichloro-4-oxo-3-(trifluoromethyl)-2,5,7-triazatricyclo-[6.4.0.0^2,6]dodeca-1(12),6,8,10-tetraen-3-yl]benzamide]: 2800 nM; for `CC(=O)c1cc(Cl)cc2c1nc1n2C(NC(=O)CCC2CCCC2)(C(F)(F)F)C(=O)N1` (stereo not shown) [Example 182, N-[9-acetyl-11-chloro-4-oxo-3-(trifluoromethyl)-2,5,7-triazatricyclo[6.4.0.0^2,6]dodeca-1(12),6,8,10-tetraen-3-yl]-3-cyclopentylpropanamide]: 1120 nM; for `O=C(CCN1CC(F)(F)C1)NC1(C(F)(F)F)C(=O)Nc2nc3cc(Cl)c(Cl)cc3n21` (stereo not shown) [Example 104, N-[10,11-dichloro-4-oxo-3-(trifluoromethyl)-2,5,7-triazatricyclo[6.4.0.0^2,6]dodeca-1(8),6,9,11-tetraen-3-yl]-3-(3,3-difluoroazetidin-1-yl)propanamide]: 4020 nM.
Then `O=C(CCC1CCCC1)NC1(C(F)(F)F)C(=O)Nc2nc3ccccc3n21` (stereo not shown) [Example 9, 3-cyclopentyl-N-[4-oxo-3-(trifluoromethyl)-2,5,7-triazatricyclo[6.4.0.0^2,6]dodeca-1(8),6,9,11-tetraen-3-yl]propanamide], with 10200 nM.
Turning to `Cc1ccc2c(nc3n2C(NC(=O)CCC2CCCC2)(C(F)(F)F)C(=O)N3)c1C` (stereo not shown) [Example 80, 3-cyclopentyl-N-[9,10-dimethyl-4-oxo-3-(trifluoromethyl)-2,5,7-triazatricyclo[6.4.0.0^2,6]-dodeca-1(12),6,8,10-tetraen-3-yl]propanamide], the 50% inhibitory concentration (IC50) amounted to 7400 nM.
The same measure for `O=C(CCC1CCCC1)NC1(C(F)(F)F)C(=O)Nc2nc3c(-c4ccccc4)cccc3n21` (stereo not shown) [Example 195, 3-cyclopentyl-N-[4-oxo-9-phenyl-3-(trifluoromethyl)-2,5,7-triazatricyclo[6.4.0.0^2,6]dodeca-1(12),6,8,10-tetraen-3-yl]propanamide]: 1270 nM; for `O=C(CCC1CCCCC1)NC1(C(F)(F)F)C(=O)Nc2nc3cc(Cl)c(Cl)cc3n21` (stereo not shown) [Example 53, 3-cyclohexyl-N-[10,11-dichloro-4-oxo-3-(trifluoromethyl)-2,5,7-triazatricyclo[6.4.0.0^2,6]-dodeca-1(12),6,8,10-tetraen-3-yl]propanamide]: 700 nM; for `O=C(CN1CCOCC1)NC1(C(F)(F)F)C(=O)Nc2nc3cc(Cl)c(Cl)cc3n21` (stereo not shown) [Example 60, N-[10,11-dichloro-4-oxo-3-(trifluoromethyl)-2,5,7-triazatricyclo[6.4.0.0^2,6]dodeca-1(12),6,8,10-tetraen-3-yl]-2-(morpholin-4-yl)acetamide]: 4000 nM.
